Test results reported in PubChem BioAssay (NCI).
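In this assay, cells in 96-well plates receive the compound at five concentrations for 48 hours. Endpoints are linearly interpolated between the surrounding concentrations. GI50: concentration for 50% inhibition of growth. TGI marks complete inhibition of growth.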

Tests used:
Experiment in all cases: growth of human tumour cells (NCI), 48 h
BT-549 breast = tested on: BT-549 breast
CCRF-CEM leukemia = tested on: CCRF-CEM leukemia
HOP-62 NSCLC = tested on: HOP-62 NSCLC
HOP-92 NSCLC = tested on: HOP-92 NSCLC
MDA-MB-231 breast = tested on: MDA-MB-231 breast
OVCAR-4 ovarian = tested on: OVCAR-4 ovarian
SF-268 CNS = tested on: SF-268 CNS
SNB-19 CNS = tested on: SNB-19 CNS
T-47D breast = tested on: T-47D breast
UACC-62 melanoma = tested on: UACC-62 melanoma

Compound	GI50 (BT-549 breast) [µM]	TGI (BT-549 breast) [µM]	GI50 (CCRF-CEM leukemia) [µM]	TGI (CCRF-CEM leukemia) [µM]	GI50 (HOP-62 NSCLC) [µM]	TGI (HOP-62 NSCLC) [µM]	GI50 (HOP-92 NSCLC) [µM]	TGI (HOP-92 NSCLC) [µM]	GI50 (MDA-MB-231 breast) [µM]	TGI (MDA-MB-231 breast) [µM]	GI50 (OVCAR-4 ovarian) [µM]	TGI (OVCAR-4 ovarian) [µM]	GI50 (SF-268 CNS) [µM]	TGI (SF-268 CNS) [µM]	GI50 (SNB-19 CNS) [µM]	TGI (SNB-19 CNS) [µM]	GI50 (T-47D breast) [µM]	TGI (T-47D breast) [µM]	GI50 (UACC-62 melanoma) [µM]	TGI (UACC-62 melanoma) [µM]
COc1cc(/C=C/c2cc(/C=C/c3ccc(O)c(OC)c3)n(C(=O)Nc3ccc(Cl)cc3)n2)ccc1O	0.885	3.51	0.298	> 21.4	0.537	1.85	2.14	7.04	0.975	10.7	0.803	5.73	0.58	4.2	0.664	11.1	1.25	4.17	0.551	2.24
O=c1cc(-c2ccccc2)oc2cc(OC/C(=N/O)c3ccc(F)cc3)ccc12	15.1	36.9	23.7	> 50	> 50	> 50	28.6	> 50	16.3	> 50	> 50	> 50	19.7	> 50	> 50	> 50	25.5	> 50	14.8	> 50
CNS(=O)(=O)OCC1OC(n2cnc3c(N)ncnc32)C(O)C1O (stereo not given)	> 100	> 100	> 100	> 100	> 100	> 100	> 100	> 100	> 100	> 100	> 100	> 100	> 100	> 100	> 100	> 100	> 100	> 100	> 100	> 100
Cc1cc(Nc2cc(N3CCN(C)CC3)nc(Sc3ccc(NC(=O)C4CC4)cc3)n2)n[nH]1	5.89	> 10	0.00613	> 10	2.99	> 10	0.989	5.77	3.98	> 10	> 10	> 10	5.52	> 10	> 10	> 10	> 10	> 10	1.53	> 10
N#CN1CC[C@H](C(=O)Nc2cc3cc(C(N)=O)ccc3cn2)C1	0.0357	0.23	0.029	> 100	0.172	3.5	0.0692	0.542	0.0995	> 24.5	0.041	1.6	0.0732	24.3	0.144	> 100	0.016	0.0651	0.0587	0.399
Cn1c(=S)c2[nH]c(SCCN3C(=O)c4ccccc4C3=O)nc2n(C)c1=O		> 100		> 100		> 100		> 100		> 100		> 100		> 100		> 100		> 100		> 100
Cc1ccc(-c2nc(-c3cn(C)c4ncccc34)cs2)cc1	8	32.4	14.7	> 80	7.71	22	4.73	23.8	4.88	21.5	12.8	46.4	7.83	39.2	5.27	30.5	2.53	18.6	3.17	16.3
Cc1c(C(N)=O)sc2c1c(=O)n(Cc1ccccc1)c1nnc(-c3ccc(Br)cc3)n21	3.85	18.9	0.805	22.8	1.38	14.4	5.09	21.3	0.829	18.6	2.51	15.8	1.4	13.4	2.91	17.5	3.38	18.9	1.78	8.46
O=C(Nc1ccccc1O)c1ccc(NS(=O)(=O)c2cccc3cccnc23)cc1	2.79	7.94	1.05	> 25	0.855	7.33	0.691	3.22	2.17	7.72	2.24	24.5	1.54	8.18	2.89	> 14.8	0.559	4.16	0.539	3.49
